Assay results published in patent US6355799B1, “Substituted benzene compounds, process for their preparation, and herbicidal and defoliant compositions containing them” (ISK Americas Incorporated, priority 1997, dated 2002).

How the values were obtained:
Assay type in all cases: in vivo
[1] = tested on: lambsquarters (Chenopodium album, CHEAL); assay: Post-emerge test, greenhouse herbicide activity screening; details: post-emerge, phytotoxicity rating 0-100 at 14 days after application
How it was run: (§1)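 Herbicidal damage is scored 0 (none) to 100 (complete plant death) two weeks after a simulated field spray. Rates span 15–1000 g ai/ha, delivered in acetone at 187 l/ha. For post-emergence treatments, plants have 2–3 leaves and the spray carries 0.25% v/v non-ionic surfactant.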

[2] = tested on: barnyardgrass (Echinochloa crus-galli, ECHCG); assay: as above; details: post-emerge, phytotoxicity rating 0-100 at 14 days after application
How it was run: as §1

[3] = tested on: johnsongrass (Sorghum halepense, SORHA); assay: as above; details: post-emerge, phytotoxicity rating 0-100 at 14 days after application
How it was run: as §1

[4] = tested on: velvetleaf (Abutilon theophrasti, ABUTH); assay: as above; details: post-emerge, phytotoxicity rating 0-100 at 14 days after application
How it was run: as §1

[5] = tested on: large crabgrass (Digitaria sanguinalis, DIGSA); assay: as above; details: post-emerge, phytotoxicity rating 0-100 at 14 days after application
How it was run: as §1

[6] = tested on: green foxtail (Setaria viridis, SETVI); assay: as above; details: post-emerge, phytotoxicity rating 0-100 at 14 days after application
How it was run: as §1

[7] = tested on: redroot pigweed (Amaranthus retroflexus, AMARE); assay: as above; details: post-emerge, phytotoxicity rating 0-100 at 14 days after application
How it was run: as §1

[8] = tested on: sicklepod (Cassia obtusifolia, CASOB); assay: as above; details: post-emerge, phytotoxicity rating 0-100 at 14 days after application
How it was run: as §1

[9] = tested on: ivyleaf morningglory (Ipomoea hederacea, IPOHE); assay: as above; details: post-emerge, phytotoxicity rating 0-100 at 14 days after application
How it was run: as §1

[10] = tested on: upland rice (Oryza sp., var. Tebonnet, RICE); assay: Post-emerge test, crop safety; details: post-emerge, crop damage rating 0-100 at 14 days after application
How it was run: (§2)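 Compounds in acetone were track-sprayed at 187 l/ha, 15–1000 g ai/ha, onto sandy loam pots. Pre-emerge seeds were sown one day before spraying, with surface watering afterwards. Post-emerge plants were at the 2–3 leaf stage and sprayed with 0.25% v/v non-ionic surfactant. Injury was rated 0–100 at 14 days.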

[11] = tested on: field corn (Zea mays L., var. Dekalb 535, CORN); assay: Post-emerge test, crop safety; details: post-emerge, crop damage rating 0-100 at 14 days after application
How it was run: as §2

[12] = tested on: lambsquarters (Chenopodium album, CHEAL); assay: Pre-emerge test, greenhouse herbicide activity screening; details: pre-emerge, phytotoxicity rating 0-100 at 14 days after application
How it was run: as §2

[13] = tested on: barnyardgrass (Echinochloa crus-galli, ECHCG); assay: as above; details: pre-emerge, phytotoxicity rating 0-100 at 14 days after application
How it was run: as §2

[14] = tested on: johnsongrass (Sorghum halepense, SORHA); assay: as above; details: pre-emerge, phytotoxicity rating 0-100 at 14 days after application
How it was run: as §2

[15] = tested on: velvetleaf (Abutilon theophrasti, ABUTH); assay: as above; details: pre-emerge, phytotoxicity rating 0-100 at 14 days after application
How it was run: as §2

[16] = tested on: large crabgrass (Digitaria sanguinalis, DIGSA); assay: as above; details: pre-emerge, phytotoxicity rating 0-100 at 14 days after application
How it was run: as §2

[17] = tested on: green foxtail (Setaria viridis, SETVI); assay: as above; details: pre-emerge, phytotoxicity rating 0-100 at 14 days after application
How it was run: as §2

[18] = tested on: sicklepod (Cassia obtusifolia, CASOB); assay: as above; details: pre-emerge, phytotoxicity rating 0-100 at 14 days after application
How it was run: as §2

[19] = tested on: ivyleaf morningglory (Ipomoea hederacea, IPOHE); assay: as above; details: pre-emerge, phytotoxicity rating 0-100 at 14 days after application
How it was run: as §2

[20] = tested on: redroot pigweed (Amaranthus retroflexus, AMARE); assay: as above; details: pre-emerge, phytotoxicity rating 0-100 at 14 days after application
How it was run: as §1

[21] = tested on: upland rice (Oryza sp., var. Tebonnet, RICE); assay: Pre-emerge test, crop safety; details: crop damage, pre-emerge, phytotoxicity rating 0-100 at 14 days after application
How it was run: (§3)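 Plants grown in 10 cm pots of sandy loam mix received acetone-dissolved compounds through a moving flat-fan nozzle. Doses ranged from 15 to 1000 g ai/ha. Pre-emerge pots were seeded one day earlier, post-emerge pots 8–21 days earlier. Fourteen days on, each pot was graded 0–100 for damage.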

[22] = tested on: field corn (Zea mays L., var. Dekalb 535, CORN); assay: Pre-emerge test, crop safety; details: crop damage, pre-emerge, phytotoxicity rating 0-100 at 14 days after application
How it was run: as §3

`COc1ccccc1COC(=O)Nc1c(C)c(Cl)cc(F)c1-n1c(=O)cc(C(F)(F)F)n(C)c1=O` [4-58] was tested, and the “Post-emerge Herbicidal Activity CHEAL” value ([1]; 63 g ai/ha) was 100, the “Post-emerge Herbicidal Activity CHEAL” value ([1]; 250 g ai/ha) was 100 and the “Post-emerge Herbicidal Activity ECHCG” value ([2]; 63 g ai/ha) was 30. For the same compound, the “Post-emerge Herbicidal Activity ECHCG” value ([2]; 250 g ai/ha) was 40, the “Post-emerge Herbicidal Activity SORHA” value ([3]; 63 g ai/ha) was 30 and the “Post-emerge Herbicidal Activity SORHA” value ([3]; 250 g ai/ha) was 50. The “Post-emerge Herbicidal Activity ABUTH” value ([4]; 63 g ai/ha) was 100, the “Post-emerge Herbicidal Activity ABUTH” value ([4]; 250 g ai/ha) was 100 and the “Post-emerge Herbicidal Activity DIGSA” value ([5]; 63 g ai/ha) was 20. The “Post-emerge Herbicidal Activity DIGSA” value ([5]; 250 g ai/ha) was 60, the “Post-emerge Herbicidal Activity SETVI” value ([6]; 63 g ai/ha) was 50 and the “Post-emerge Herbicidal Activity SETVI” value ([6]; 250 g ai/ha) was 90. The “Post-emerge Herbicidal Activity AMARE” value ([7]; 63 g ai/ha) was 100, the “Post-emerge Herbicidal Activity AMARE” value ([7]; 250 g ai/ha) was 100 and the “Post-emerge Herbicidal Activity CASOB” value ([8]; 63 g ai/ha) was 90. For the same compound, the “Post-emerge Herbicidal Activity CASOB” value ([8]; 250 g ai/ha) was 100, the “Post-emerge Herbicidal Activity IPOHE” value ([9]; 63 g ai/ha) was 100 and the “Post-emerge Herbicidal Activity IPOHE” value ([9]; 250 g ai/ha) was 100. The “Post-emerge Herbicidal Activity RICE” value ([10]; 63 g ai/ha) was 60, the “Post-emerge Herbicidal Activity RICE” value ([10]; 250 g ai/ha) was 75 and the “Post-emerge Herbicidal Activity CORN” value ([11]; 63 g ai/ha) was 30. The “Post-emerge Herbicidal Activity CORN” value ([11]; 250 g ai/ha) was 70, the “Pre-emerge Herbicidal Activity CHEAL” value ([12]; rate 63 g ai/ha) was 100 and the “Pre-emerge Herbicidal Activity CHEAL” value ([12]; rate 250 g ai/ha) was 100. For the same compound, the “Pre-emerge Herbicidal Activity ECHCG” value ([13]; rate 63 g ai/ha) was 30, the “Pre-emerge Herbicidal Activity ECHCG” value ([13]; rate 250 g ai/ha) was 70 and the “Pre-emerge Herbicidal Activity SORHA” value ([14]; rate 63 g ai/ha) was 20. For the same compound, the “Pre-emerge Herbicidal Activity SORHA” value ([14]; rate 250 g ai/ha) was 60, the “Pre-emerge Herbicidal Activity ABUTH” value ([15]; rate 63 g ai/ha) was 100 and the “Pre-emerge Herbicidal Activity ABUTH” value ([15]; rate 250 g ai/ha) was 100. For the same compound, the “Pre-emerge Herbicidal Activity DIGSA” value ([16]; rate 63 g ai/ha) was 30, the “Pre-emerge Herbicidal Activity DIGSA” value ([16]; rate 250 g ai/ha) was 100 and the “Pre-emerge Herbicidal Activity SETVI” value ([17]; rate 63 g ai/ha) was 80. For the same compound, the “Pre-emerge Herbicidal Activity SETVI” value ([17]; rate 250 g ai/ha) was 100, the “Pre-emerge Herbicidal Activity CASOB” value ([18]; rate 63 g ai/ha) was 70 and the “Pre-emerge Herbicidal Activity CASOB” value ([18]; rate 250 g ai/ha) was 100. For the same compound, the “Pre-emerge Herbicidal Activity IPOHE” value ([19]; rate 63 g ai/ha) was 30, the “Pre-emerge Herbicidal Activity IPOHE” value ([19]; rate 250 g ai/ha) was 100 and the “Pre-emerge Herbicidal Activity AMARE” value ([20]; rate 63 g ai/ha) was 100. For the same compound, the “Pre-emerge Herbicidal Activity AMARE” value ([20]; rate 250 g ai/ha) was 100, the “Pre-emerge Herbicidal Activity RICE” value ([21]; rate 63 g ai/ha) was 30 and the “Pre-emerge Herbicidal Activity RICE” value ([21]; rate 250 g ai/ha) was 70. The “Pre-emerge Herbicidal Activity CORN” value ([22]; rate 63 g ai/ha) was 0 and the “Pre-emerge Herbicidal Activity CORN” value ([22]; rate 250 g ai/ha) was 25.
